Assay results published in PubChem BioAssay AID1919002 (Molecular Pharmacology Branch, DTP, NCI, 2023).
Several values for one entry are separate records, joined by “and”; a condition that tells them apart may be missing. Equal entries are not always repeated.

System: 743489-274-T-PDC complex spheroid growth
Experiment: Anticancer human tumor 743489-274-T-PDC patient-derived renal cell carcinoma cell line growth inhibition [AhR]
Details: for viability, T/C: stronger effect = lower value
In short: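 Spheroids combined tumor cells with HUVEC endothelial cells and human MSCs as stroma. AhR antagonists were paired with standard or investigational drugs, each dosed in half-log steps down from near clinical Cmax, or from 10 microM where Cmax was unknown.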

[1] = curve of first compound, second compound 0.1 µM
[2] = curve of first compound, second compound 0.316 µM
[3] = curve of first compound, second compound 1 µM
[4] = curve of first compound, second compound 3.16 µM
[5] = curve of first compound, second compound 10 µM
[6] = second compound 0.1 µM, first compound 0.0316 µM
[7] = second compound 0.1 µM, first compound 0.1 µM
[8] = second compound 0.1 µM, first compound 0.316 µM
[9] = second compound 0.1 µM, first compound 1 µM
[10] = second compound 0.316 µM, first compound 0.0316 µM
[11] = second compound 0.316 µM, first compound 0.1 µM
[12] = second compound 0.316 µM, first compound 0.316 µM
[13] = second compound 0.316 µM, first compound 1 µM
[14] = second compound 1 µM, first compound 0.0316 µM
[15] = second compound 1 µM, first compound 0.1 µM
[16] = second compound 1 µM, first compound 0.316 µM
[17] = second compound 1 µM, first compound 1 µM
[18] = second compound 3.16 µM, first compound 0.0316 µM
[19] = second compound 3.16 µM, first compound 0.1 µM
[20] = second compound 3.16 µM, first compound 0.316 µM
[21] = second compound 3.16 µM, first compound 1 µM
[22] = second compound 10 µM, first compound 0.0316 µM
[23] = second compound 10 µM, first compound 0.1 µM
[24] = second compound 10 µM, first compound 0.316 µM
[25] = second compound 10 µM, first compound 1 µM
[26] = second compound 0.1 µM, first compound 3.16 µM
[27] = second compound 0.1 µM, first compound 10 µM
[28] = second compound 0.316 µM, first compound 3.16 µM
[29] = second compound 0.316 µM, first compound 10 µM
[30] = second compound 1 µM, first compound 3.16 µM
[31] = second compound 1 µM, first compound 10 µM
[32] = second compound 3.16 µM, first compound 3.16 µM
[33] = second compound 3.16 µM, first compound 10 µM
[34] = second compound 10 µM, first compound 3.16 µM
[35] = second compound 10 µM, first compound 10 µM
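Note: spheroids exposed to agents for 7 days before readout.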
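Throughout, for viability, T/C: 100% = DMSO vehicle control wells.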

IC50 [1]	IC50 [2]	IC50 [3]	IC50 [4]	IC50 [5]	Structure (SMILES)	viability, T/C [6]	viability, T/C [7]	viability, T/C [8]	viability, T/C [9]	viability, T/C [10]	viability, T/C [11]	viability, T/C [12]	viability, T/C [13]	viability, T/C [14]	viability, T/C [15]	viability, T/C [16]	viability, T/C [17]	viability, T/C [18]	viability, T/C [19]	viability, T/C [20]	also measured
> 1 µM	> 1 µM	> 1 µM	> 1 µM	> 1 µM	Nc1ncn(C2CC(O)C(CO)O2)c(=O)n1 (configuration not stated) + Cc1ccccc1N=Nc1ccc(NC(=O)c2ccnn2C)c(C)c1	88.6%	92.5%	103%	87.1%	89.8%	87.2%	87.8%	84.7%	101%	79.8%	101%	87.9%	83.9%	74.8%	88.9%	viability, T/C (second compound 0.1 µM, first compound 0.00316 µM): 86.2%; viability, T/C (second compound 0.1 µM, first compound 0.01 µM): 91.2%; viability, T/C (second compound 0.316 µM, first compound 0.00316 µM): 107%; viability, T/C (second compound 0.316 µM, first compound 0.01 µM): 89.2%; viability, T/C (second compound 1 µM, first compound 0.00316 µM): 89.7%; viability, T/C (second compound 1 µM, first compound 0.01 µM): 99.1%; viability, T/C (second compound 3.16 µM, first compound 0.00316 µM): 94.8%; viability, T/C (second compound 3.16 µM, first compound 0.01 µM): 81.7%; viability, T/C [21]: 82.8%; viability, T/C (second compound 10 µM, first compound 0.00316 µM): 92.7%; viability, T/C (second compound 10 µM, first compound 0.01 µM): 88%; viability, T/C [22]: 90%; viability, T/C [23]: 96.2%; viability, T/C [24]: 80.1%; viability, T/C [25]: 82.8%
					O=C(C=Cn1cnc(-c2cc(C(F)(F)F)cc(C(F)(F)F)c2)n1)NNc1cnccn1																viability, T/C (compound 0.00949 µM): 102% and 119% and 97.2%; viability, T/C (compound 0.03 µM): 104% and 110% (2×); viability, T/C (compound 0.0949 µM): 105% and 119% and 115%; viability, T/C (compound 0.3 µM): 115% and 107% and 129%; viability, T/C (compound 0.949 µM): 114% and 113% and 116%; viability, T/C (compound 3 µM): 93.8% and 94.4% and 92.8%; IC50 (curve of compound): > 3 µM
> 10 µM	> 10 µM	> 10 µM	> 10 µM	> 10 µM	CC1COCCN1c1cc(C2(S(C)(=N)=O)CC2)nc(-c2ccnc3[nH]ccc23)n1 (configuration not stated) + CC(CO)NC(=O)c1cc(-c2ccc(Cl)cc2)nn(-c2cnn(C)c2)c1=O	97.5%	89.1%	94.7%	92%	90.2%	99.5%	96.3%	86.2%	99%	84.7%	95.3%	101%	92.7%	86.8%	86.1%	viability, T/C [26]: 98.7%; viability, T/C [27]: 96.7%; viability, T/C [28]: 85.3%; viability, T/C [29]: 91.3%; viability, T/C [30]: 87.4%; viability, T/C [31]: 93%; viability, T/C [21]: 90.3%; viability, T/C [32]: 84.5%; viability, T/C [33]: 103%; viability, T/C [22]: 109%; viability, T/C [23]: 94.2%; viability, T/C [24]: 89.9%; viability, T/C [25]: 83.3%; viability, T/C [34]: 93.7%; viability, T/C [35]: 102%
> 10 µM	> 10 µM	> 10 µM	> 10 µM	> 10 µM	O=C(c1cc(Cc2n[nH]c(=O)c3ccccc23)ccc1F)N1CCN(C(=O)C2CC2)CC1 + Cc1cncc(-c2nc(NCCc3c[nH]c4ccccc34)c3ncn(C(C)C)c3n2)c1	91.6%	96.4%	99%	88.3%	87.1%	84.4%	94.2%	86.2%	98.8%	99.9%	94.5%	93.2%	93.3%	102%	100%	viability, T/C [26]: 86.1%; viability, T/C [27]: 85.6%; viability, T/C [28]: 82.1%; viability, T/C [29]: 88.4%; viability, T/C [30]: 89.9%; viability, T/C [31]: 85.4%; viability, T/C [21]: 90%; viability, T/C [32]: 85.7%; viability, T/C [33]: 95.1%; viability, T/C [22]: 104%; viability, T/C [23]: 102%; viability, T/C [24]: 111%; viability, T/C [25]: 102%; viability, T/C [34]: 105%; viability, T/C [35]: 103%
> 10 µM	> 10 µM	> 10 µM	> 10 µM	> 10 µM	NS(=O)(=O)OCC1CC(n2ccc3c(NC4CCc5ccccc54)ncnc32)CC1O (configuration not stated) + CC(CO)NC(=O)c1cc(-c2ccc(Cl)cc2)nn(-c2cnn(C)c2)c1=O	89.3%	89.7%	101%	123%	86.1%	82.3%	85.7%	119%	82.3%	96.7%	99.2%	116%	91.1%	86.1%	99.2%	viability, T/C [26]: 149%; viability, T/C [27]: 155%; viability, T/C [28]: 148%; viability, T/C [29]: 156%; viability, T/C [30]: 141%; viability, T/C [31]: 143%; viability, T/C [21]: 109%; viability, T/C [32]: 132%; viability, T/C [33]: 136%; viability, T/C [22]: 89.5%; viability, T/C [23]: 96.1%; viability, T/C [24]: 84.8%; viability, T/C [25]: 112%; viability, T/C [34]: 119%; viability, T/C [35]: 129%
> 10 µM	> 10 µM	> 10 µM	> 10 µM	> 10 µM	O=C(c1cc(Cc2n[nH]c(=O)c3ccccc23)ccc1F)N1CCN(C(=O)C2CC2)CC1 + Cc1ccccc1N=Nc1ccc(NC(=O)c2ccnn2C)c(C)c1	104%	96.2%	91.8%	90%	94.4%	94.4%	94.3%	90.2%	97%	95.2%	111%	96.1%	97%	87.5%	91.4%	viability, T/C [26]: 108%; viability, T/C [27]: 94.6%; viability, T/C [28]: 91.7%; viability, T/C [29]: 94.2%; viability, T/C [30]: 93.8%; viability, T/C [31]: 83.3%; viability, T/C [21]: 90.6%; viability, T/C [32]: 101%; viability, T/C [33]: 99.3%; viability, T/C [22]: 92.4%; viability, T/C [23]: 110%; viability, T/C [24]: 106%; viability, T/C [25]: 96.8%; viability, T/C [34]: 92.7%; viability, T/C [35]: 85.4%
